Experimental data taken from ChEMBL document CHEMBL1201862, “PubChem BioAssay data set” (2004).
The source made the active and inactive calls. Cut-off read from the data, not from the text of the source, for most assays here: actives have a measured EC50 and inactives only a lower limit.

Key:
[1] = tested on: Streptococcus sp. 'group A'; experiment: Streptococcus pyogenes SK(-)GAS viability under kanamycin – luminescence, BacTiterGlo, confirmation, counter-screen for streptokinase expression inhibitor project, dose response (AID 1900); type: functional, organism-based
[2] = molecular target: T1, Heat shock factor protein 1 (Mus musculus, UniProt P38532); experiment: decrease of HSF1-responsive luciferase luminescence – cell-based, NIH3T3, dose retest, confirmation (AID 2382); type: functional;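 note: NIH3T3 fibroblasts with HSF1-driven luciferase reporter stressed by proteasome inhibitor MG132; luminescence from HSF1-driven luciferase expression after 8 hours of MG132 stress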
T1 sequence (P38532 whole entry): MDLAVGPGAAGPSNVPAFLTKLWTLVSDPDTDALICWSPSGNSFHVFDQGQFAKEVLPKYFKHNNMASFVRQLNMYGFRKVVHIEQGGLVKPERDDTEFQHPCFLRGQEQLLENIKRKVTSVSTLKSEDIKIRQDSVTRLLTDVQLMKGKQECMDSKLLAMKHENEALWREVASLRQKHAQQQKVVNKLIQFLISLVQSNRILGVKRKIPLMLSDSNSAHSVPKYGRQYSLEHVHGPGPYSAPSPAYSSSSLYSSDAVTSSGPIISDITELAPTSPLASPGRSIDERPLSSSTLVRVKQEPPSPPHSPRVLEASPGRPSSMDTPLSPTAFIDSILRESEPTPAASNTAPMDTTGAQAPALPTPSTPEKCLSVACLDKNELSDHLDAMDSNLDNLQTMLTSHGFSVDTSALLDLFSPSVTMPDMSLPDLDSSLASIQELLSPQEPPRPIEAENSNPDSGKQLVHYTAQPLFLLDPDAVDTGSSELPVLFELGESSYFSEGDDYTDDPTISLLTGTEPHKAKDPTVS

[3] = molecular target: T2, Replicative DNA helicase DnaB (Mycobacterium tuberculosis, UniProt P9WMR3); experiment: DnaB intein splicing inhibitors, dose response, biochemical, cell-free fluorescence (AID 449749); type: functional
T2 sequence (P9WMR3 whole entry): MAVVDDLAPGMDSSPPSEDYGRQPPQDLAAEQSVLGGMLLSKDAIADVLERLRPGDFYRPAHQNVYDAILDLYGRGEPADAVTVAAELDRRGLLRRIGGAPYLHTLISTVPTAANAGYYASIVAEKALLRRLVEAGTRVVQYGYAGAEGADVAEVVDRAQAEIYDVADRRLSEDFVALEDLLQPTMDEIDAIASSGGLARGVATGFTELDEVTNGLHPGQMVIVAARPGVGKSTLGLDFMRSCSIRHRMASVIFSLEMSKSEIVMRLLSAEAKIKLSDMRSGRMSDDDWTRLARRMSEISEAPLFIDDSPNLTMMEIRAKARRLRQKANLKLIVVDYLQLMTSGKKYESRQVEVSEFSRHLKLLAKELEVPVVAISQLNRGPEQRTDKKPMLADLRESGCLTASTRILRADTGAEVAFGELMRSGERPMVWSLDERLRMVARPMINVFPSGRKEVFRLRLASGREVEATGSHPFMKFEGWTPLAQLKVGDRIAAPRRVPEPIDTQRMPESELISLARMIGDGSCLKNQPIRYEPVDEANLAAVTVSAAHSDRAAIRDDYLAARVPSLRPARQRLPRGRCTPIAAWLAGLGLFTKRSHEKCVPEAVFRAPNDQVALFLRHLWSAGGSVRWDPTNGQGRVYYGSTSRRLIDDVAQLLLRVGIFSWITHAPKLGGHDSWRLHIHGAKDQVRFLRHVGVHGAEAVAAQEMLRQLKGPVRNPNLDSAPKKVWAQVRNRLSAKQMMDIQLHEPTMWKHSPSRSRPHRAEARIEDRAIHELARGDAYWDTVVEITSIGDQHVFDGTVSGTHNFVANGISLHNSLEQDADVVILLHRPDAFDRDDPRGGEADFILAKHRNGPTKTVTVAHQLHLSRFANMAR

COc1ccc(C(=O)c2c(C(F)(F)F)oc3c2C(=O)c2ccccc2C3=O)cc1
active: EC50 [1] 2.26 µM | EC50 [2] 2.67 µM | AC50 [3] 0.164 µM
